# Data from patent publication US6562801B1, “PpGpp and pppGpp as immunomodulatory agents” (Board of Regents, The University of Texas System, priority 1999, dated 2003).
# Entries after “also recorded” stand apart in the source; their conditions may differ.
# Key:
# [1] = system: humoral response to HBsAg (anti-HBsAg antibodies); test: Humoral response (anti-HBsAg antibody titers by ELISA) in mice immunized i.m. with HBsAg plus adjuvant; type: in vivo, BALB/c mice; conditions: for mean anti-HBsAg titer: 3 weeks post-immunization, approx. 18 nmol compound per mouse with alum and 1 μg HBsAg (FIG. 4); for speed of immune response vs alum control: titers at 2 to 3 weeks, p<0.05, approx. 18 nmol per mouse with alum
# Experimental: Immunization with HBsAg was conducted on groups of (n=4 or 5) 6- to 8-week old female BALB/c mice (Harlan) as described in, Davis et al., 1996. Each solution contained 1 μg recombinant HBsAg protein (ayw subtype; Genzyme) in a total volume of 50 μl, and 25 μl of each antigen solution was injected into both the left and right tibialis anterior muscles. […] This is the same ratio as used in the commercial hepatitis B vaccines (Davis et al., 1996). […] (Oligonucleotide 1826, previously described in Davis et al., 1996, contains a nuclease-resistant phosphorothioate modified backbone).
# The ELISA method was used to evaluate the immune response to a combination of ppGpp and pppGpp and the immune response to ppGpp alone. Kinetics and magnitude of the immune response generated by the nucleotide ppGpp versus an oligonucleotide containing CpG were also determined from the data generated by ELISA. For the isotyping ELISAs the Immunopure Monoclonal Antibody Isotyping Kit I (HRP/ABTS) from Pierce was modified and used.
# For measuring humoral response to HBsAg blood was recovered from mice by tail vein bleeds at various times after immunization. The blood was clotted at room temperature for >2 hours, and centrifuged twice at 13 krpm for 10 minutes to separate the serum. Antibodies specific to HBsAg were detected by ELISA, and were quantified relative to a monoclonal antibody against HBsAg (IgG1, 10^10 affinity constant, ad+ay; Genzyme). A solid phase of recombinant HBsAg protein (100 μl of 1 μg/ml per well, overnight at 4° C.) was used to capture anti-HBsAg in the plasma (overnight at 4° C.), which was then detected with HRP-conjugated rabbit anti-mouse IgG+IgM. (1:10,000 in PBS/0.1% Tween/2% BSA; 100 μl per well; Pierce), followed by the sequential addition of 3 3′,5,5′-tetramethylbenzidine solution (50 μl/well, 10 minutes at room temperature; Calbiochem) and 0.25M HCl (50 μl/well). Absorbance was measured at 450 nm within 10 minutes of adding the final reagent. Anti-HB titers are expressed as group means +/−standard error (SE) of individual animals values, which are in turn averages of triplicate assays.
# [2] = Tolerability / signs of toxicity in immunized mice; type: in vivo; conditions: up to 250 μg ppGpp per mouse i.m.
smiles,measurement,setting,value
"Nc1nc2c(ncn2[C@@H]2O[C@H](COP(=O)(O)OP(=O)(O)OP(=O)(O)O)[C@@H](OP(=O)(O)OP(=O)(O)O)[C@H]2O)c(=O)[nH]1 [pppGpp, Guanosine 5′-triphosphate 2′(3′)-diphosphate]",mean anti-HBsAg titer,[1],136 ± 33 ng/mL
same,speed of immune response vs alum control,[1],more rapid immune response
"Nc1nc2c(ncn2[C@@H]2O[C@H](COP(=O)(O)OP(=O)(O)OP(=O)(O)O)[C@@H](O)[C@H]2O)c(=O)[nH]1 [GTP, reference compound]",adjuvant effect on humoral response,[1]; 10 μg (18 nmol) GTP with alum and HBsAg (FIG. 4E),modest at best
"Nc1nc2c(ncn2[C@@H]2O[C@H](COP(=O)(O)OP(=O)(O)O)[C@@H](OP(=O)(O)OP(=O)(O)O)[C@H]2O)c(=O)[nH]1 [ppGpp, Guanosine 5′-diphosphate 2′(3′)-diphosphate]",effect upon the humoral response,[1]; 2 μg ppGpp plus alum (FIG. 3C),did not have a significant effect
same,effect upon the humoral response,[1]; 50 μg ppGpp plus alum (FIG. 3E),did not have a significant effect
same,effect upon the humoral response,[1]; 250 μg ppGpp plus alum (FIG. 3F vs 3B),appeared to suppress the alum-induced adjuvant effect
same,mean anti-HBsAg titer,[1],161 ± 42 ng/mL
same,"anti-HBsAg titer, ppGpp group vs alum group","[1]; 4 weeks post-immunization, ppGpp 10 μg plus alum (FIG. 3B vs 3D)",trend was still present
same,"anti-HBsAg titer, ppGpp group vs alum group","[1]; 6 weeks post-immunization, ppGpp 10 μg plus alum",comparable titer levels
same,maximal anti-HBsAg titer level,"[1]; 10 weeks post-immunization, HBsAg plus alum, ppGpp 10 μg",2316 ± 1764 ng/mL
same,"time course of humoral response, ppGpp vs unmethylated CpG oligonucleotide (oligo 1826)","[1]; ppGpp 10 μg vs oligo 10 μg, with alum (FIG. 5)",did not appear to differ
same,effect of natural ppGpp vs predicted response of natural CpG oligonucleotide,"[1]; predicted response, dotted line of FIG. 5",much greater effect
same,speed of immune response vs alum control,[1],more rapid immune response
same,optimal dosage per mouse,"[1]; titration 2, 10, 50, 250 μg ppGpp with alum and 1 μg HBsAg (FIGS. 3C-3F)",10 µg
same,mean ELISA titer of anti-HBsAg antibodies,"[1]; two weeks after injection, HBsAg plus alum, ppGpp 10 μg, p=0.04 (FIG. 3B, 3D)",83 ± 37 ng/mL
same,"tolerability / signs of toxicity (ruffling of fur, diarrhea)",[2],well tolerated; also recorded: no signs of toxicity were observed
